Drawing on US20100311714A1, “1H-IMIDAZO[4,5-c]QUINOLINONE COMPOUNDS” (priority 2009, published 2010), this text covers IC50 for 24 compounds.

Structures are written as SMILES.

The target of one assay is T1, PI3K beta (Homo sapiens, UniProt P42338).
T1 construct: for the full-length p110-b subunit are generated and fused by overlapping PCR; His tag (C); made in house; host or cells: baculovirus BV949; Tn5 (Trichoplusia ni) or TiniPro insect cells
T1 sequence (P42338 with tags, fused parts or gaps limits assumed): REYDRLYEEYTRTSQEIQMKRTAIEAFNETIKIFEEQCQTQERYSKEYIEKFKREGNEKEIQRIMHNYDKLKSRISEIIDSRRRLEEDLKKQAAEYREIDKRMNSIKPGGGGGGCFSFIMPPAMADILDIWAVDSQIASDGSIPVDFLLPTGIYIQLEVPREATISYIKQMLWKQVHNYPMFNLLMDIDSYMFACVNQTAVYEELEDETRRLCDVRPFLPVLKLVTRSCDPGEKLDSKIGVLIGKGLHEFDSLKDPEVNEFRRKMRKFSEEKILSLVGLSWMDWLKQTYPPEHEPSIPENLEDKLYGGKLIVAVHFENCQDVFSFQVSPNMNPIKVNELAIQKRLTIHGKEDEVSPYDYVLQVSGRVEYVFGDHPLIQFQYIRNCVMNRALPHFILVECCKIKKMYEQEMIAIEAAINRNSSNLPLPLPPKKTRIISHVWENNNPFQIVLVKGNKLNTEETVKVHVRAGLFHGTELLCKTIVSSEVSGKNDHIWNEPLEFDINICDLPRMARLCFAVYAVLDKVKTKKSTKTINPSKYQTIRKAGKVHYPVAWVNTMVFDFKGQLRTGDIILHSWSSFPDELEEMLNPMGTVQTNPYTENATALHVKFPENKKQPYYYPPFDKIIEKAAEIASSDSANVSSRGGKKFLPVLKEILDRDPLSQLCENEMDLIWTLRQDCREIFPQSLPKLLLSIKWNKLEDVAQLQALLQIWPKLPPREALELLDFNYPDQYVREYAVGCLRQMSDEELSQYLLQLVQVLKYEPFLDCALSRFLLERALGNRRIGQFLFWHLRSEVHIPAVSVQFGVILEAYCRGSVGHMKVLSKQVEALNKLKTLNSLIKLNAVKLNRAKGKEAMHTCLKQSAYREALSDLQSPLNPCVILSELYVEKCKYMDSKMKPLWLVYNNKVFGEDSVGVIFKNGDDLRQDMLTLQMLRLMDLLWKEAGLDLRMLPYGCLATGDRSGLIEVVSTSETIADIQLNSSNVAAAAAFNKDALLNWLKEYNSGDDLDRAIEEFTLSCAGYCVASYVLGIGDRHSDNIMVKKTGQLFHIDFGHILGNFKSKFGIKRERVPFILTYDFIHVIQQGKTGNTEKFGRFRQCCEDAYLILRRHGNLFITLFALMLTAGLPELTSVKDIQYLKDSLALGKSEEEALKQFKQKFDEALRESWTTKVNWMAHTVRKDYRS
Kind of assay: PI3K beta kinase assay (Kinase-Glo luminescence). Type of assay: biochemical. The conditions noted are these: read-out: EPK_PI3Kbeta/IC50. How it is done:
In a more preferred assay, the kinase reaction is performed in a final volume of 10 μL per well of a low volume non binding CORNING, 384 well black plate (Cat. No. #3676). The final concentrations of ATP and phosphatidyl inositol (PI) in the assay are 1 μM and 10 μg/mL respectively. The reaction is started by the addition of ATP.
The components of the assay are added per well as follows:
50 nL test compounds in 90% DMSO per well, in columns 1-20, 8 concentrations (⅓ and 1/3.33 serial dilution step) in single. • Low control: […] of 90% DMSO in half the wells of columns 23-24 (0.45% in final). • High control: 50 nL of reference compound (e.g. compound of Example 7 in WO 2006/122806) in the other half of columns 23-24 (2.5 μM in final). • Standard: 50 nL of reference compound as just mentioned diluted as the test compounds in columns 21-22 • 20 mL ‘buffer’ are prepared per assay: • 200 μL of 1M TRIS HCl pH7.5 (10 mM in final) • 60 μL of 1M MgCl2 (3 mM in final) • 500 μL of 2M NaCl (50 mM in final) • 100 μL of 10% CHAPS (0.05% in final) • 200 μL of 100 mM DTT (1 mM in final) • 18.94 mL of nanopure water • 10 mL ‘PI’ are prepared per assay: • 200 μL of 1 mg/ml L-alpha-Phosphatidylinositol (Liver Bovine, Avanti Polar Lipids Cat. No. 840042C MW=909.12) prepared in 3% OctylGlucoside (10 μg/ml in final) • 9.8 mL of ‘buffer’ • 10 mL ‘ATP’ are prepared per assay: • 6.7 μL of 3 mM stock of ATP giving a final concentration of 1 μM per well • 10 mL of ‘buffer’ • 2.5 mL of each PI3K construct are prepared per assay in ‘PI’ with the following final concentration: • 10 nM PI3K alfa EMV B1075 • 25 nM beta EMV BV949 • 10 nM delta EMV BV1060 • 150 nM gamma EMV BV950 • 5 μL of ‘PI/PI3K’ are added per well. • 5 μl ‘ATP’ are added per well to start the reaction. • The plates are then incubated at room temperature for 60 minutes (alfa, beta, delta) or 120 minutes (gamma). • The reaction is terminated by the addition of 10 μL Kinase-Glo (Promega Cat. No. #6714). • The assay plates are read after 10 minutes in Synergy 2 reader (BioTek, Vermont USA) with an integration time of 100 milliseconds and sensitivity set to 191. • Output: The High control is around 60′000 counts and the Low control is 30′000 or lower • This luminescence assay gives a useful Z′ ratio between 0.4 and 0.7
PI3Kβ BV-949 p85(iSH2)-Gly linker-r 110b(full-length)-C-term His Tag
PI3K beta is purified in two chromatographic steps: immobilized metal affinity chromatography (IMAC) on a Ni Sepharose resin (GE Healthcare) and gel filtration (GFC) utilizing a Superdex 200 26/60 column (GE Healthcare). All buffers are chilled to 4° C. and lysis is performed chilled on ice. Column fractionation is performed rapidly at room temperature.
IC50 is determined by a four parameter curve fitting routine that comes along with “excel fit”. A 4 Parameter logistic equation is used to calculate IC50 values (IDBS XLfit) of the percentage inhibition of each compound at 8 concentrations (usually 10, 3.0, 1.0, 0.3, 0.1, 0.030, 0.010 and 0.003 μM). Alternatively, IC50 values are calculated using idbsXLfit model 204, which is a 4 parameter logistic model.
For the compound `Cc1ncccc1-n1c(=O)n(C)c2cnc3ccc(-c4cncc(NC(C)C)c4)cc3c21` [Example 2.24, 8-(5-Isopropylamino-pyridin-3-yl)-3-methyl-1-(2-methyl-pyridin-3-yl)-1,3-dihydro-imidazo[4,5-c]quinolin-2-one], the IC50 turned out to be 0.04 µM.
For the compound `Cc1ncccc1-n1c(=O)n(C)c2cnc3ccc(-c4cncc(N)c4)cc3c21` [Example 2.25, 8-(5-Amino-pyridin-3-yl)-3-methyl-1-(2-methyl-pyridin-3-yl)-1,3-dihydro-imidazo[4,5-c]quinolin-2-one], the IC50 was 0.143 µM.
Regarding `CNc1cncc(-c2ccc3ncc4c(c3c2)n(-c2cccnc2C)c(=O)n4C)c1` [Example 2.26, 3-Methyl-8-(5-methylamino-pyridin-3-yl)-1-(2-methyl-pyridin-3-yl)-1,3-dihydro-imidazo[4,5-c]quinolin-2-one], the IC50 was 0.031 µM.
Still for that read-out and setting: the same measure for `COc1cc(-c2ccc3ncc4c(c3c2)n(-c2cccnc2C)c(=O)n4C)cnc1C(OC)OC` [Example 2.27, 8-(6-Dimethoxymethyl-5-methoxy-pyridin-3-yl)-3-methyl-1-(2-methyl-pyridin-3-yl)-1,3-dihydro-imidazo[4,5-c]quinolin-2-one]: 1.24 µM; for `CCOc1cc(-c2ccc3ncc4c(c3c2)n(-c2cccnc2C)c(=O)n4C)cnc1COC` [Example 2.28, 8-(5-Ethoxy-6-methoxymethyl-pyridin-3-yl)-3-methyl-1-(2-methyl-pyridin-3-yl)-1,3-dihydro-imidazo[4,5-c]quinolin-2-one]: 0.563 µM.
Consider `Cc1ncccc1-n1c(=O)n(C)c2cnc3ccc(-c4cncc(N5CCC5)c4)cc3c21` [Example 2.29, 8-(5-Azetidin-1-yl-pyridin-3-yl)-3-methyl-1-(2-methyl-pyridin-3-yl)-1,3-dihydro-imidazo[4,5-c]quinolin-2-one], for which the IC50 came out at 0.782 µM.
`CCNc1cc(-c2ccc3ncc4c(c3c2)n(-c2cccnc2C)c(=O)n4C)cnc1CO` [Example 2.31, 8-(5-Ethylamino-6-hydroxymethyl-pyridin-3-yl)-3-methyl-1-(2-methyl-pyridin-3-yl)-1,3-dihydro-imidazo[4,5-c]quinolin-2-one]: the IC50 stood at 0.067 µM.
Still for that read-out and setting: in the case of `CNc1cc(-c2ccc3ncc4c(c3c2)n(-c2cccnc2C)c(=O)n4C)cnc1C` [Example 2.32, 3-Methyl-8-(6-methyl-5-methylamino-pyridin-3-yl)-1-(2-methyl-pyridin-3-yl)-1,3-dihydro-imidazo[4,5-c]quinolin-2-one] it was 0.061 µM.

The same assay, now with this note: read-out: PI3Kbeta/IC50.
For the compound `COc1ncccc1-n1c(=O)n(C)c2cnc3ccc(-c4cnc5[nH]ccc5c4)cc3c21` [Example 1.2, 1-(2-Methoxy-pyridin-3-yl)-3-methyl-8-(1H-pyrrolo[2,3-b]pyridin-5-yl)-1,3-dihydro-imidazo[4,5-c]quinolin-2-one], the IC50 amounted to 0.115 µM.
`COc1ncccc1-n1c(=O)n(C)c2cnc3ccc(-c4ccc(C(N)=O)cc4)cc3c21` [Example 1.6, 4-[1-(2-Methoxy-pyridin-3-yl)-3-methyl-2-oxo-2,3-dihydro-1H-imidazo[4,5-c]quinolin-8-yl]-benzamide]: the IC50 worked out at 0.491 µM.
The same measure, in the same setting: the same measure for `Cc1ncccc1-n1c(=O)n(C)c2cnc3ccc(-c4ccc(C(N)=O)cc4)cc3c21` [Example 2.3, 4-[3-Methyl-1-(2-methyl-pyridin-3-yl)-2-oxo-2,3-dihydro-1H-imidazo[4,5-c]quinolin-8-yl]-benzamide]: 0.577 µM.
Still for that read-out and setting: the same measure for `CCOc1ncc(-c2ccc3ncc4c(c3c2)n(-c2cccnc2C)c(=O)n4C)cn1` [Example 2.5, 8-(2-Ethoxy-pyrimidin-5-yl)-3-methyl-1-(2-methyl-pyridin-3-yl)-1,3-dihydro-imidazo[4,5-c]quinolin-2-one]: 0.749 µM; for `Cc1ncccc1-n1c(=O)n(C)c2cnc3ccc(-c4ccc(CO)nc4)cc3c21` [Example 2.6, 8-(6-Hydroxymethyl-pyridin-3-yl)-3-methyl-1-(2-methyl-pyridin-3-yl)-1,3-dihydro-imidazo[4,5-c]quinolin-2-one]: 0.706 µM.
For the compound `Cc1ncccc1-n1c(=O)n(C)c2cnc3ccc(-c4ccc(N)nc4)cc3c21` [Example 2.7, 8-(6-Amino-pyridin-3-yl)-3-methyl-1-(2-methyl-pyridin-3-yl)-1,3-dihydro-imidazo[4,5-c]quinolin-2-one], the IC50 was found to be 0.133 µM.
The same measure, in the same setting: the same measure for `COc1ccc(-c2ccc3ncc4c(c3c2)n(-c2cccnc2C)c(=O)n4C)cc1OC` [Example 2.9, 8-(3,4-Dimethoxy-phenyl)-3-methyl-1-(2-methyl-pyridin-3-yl)-1,3-dihydro-imidazo[4,5-c]quinolin-2-one]: 0.077 µM; for `Cc1ncccc1-n1c(=O)n(C)c2cnc3ccc(-c4cnc(N)c(C(F)(F)F)c4)cc3c21` [Example 2.11, 8-(6-Amino-5-trifluoromethyl-pyridin-3-yl)-3-methyl-1-(2-methyl-pyridin-3-yl)-1,3-dihydro-imidazo[4,5-c]quinolin-2-one]: 0.014 µM; for `COc1ccc(-c2ccc3ncc4c(c3c2)n(-c2cccnc2C)c(=O)n4C)cn1` [Example 2.12, 8-(6-Methoxy-pyridin-3-yl)-3-methyl-1-(2-methyl-pyridin-3-yl)-1,3-dihydro-imidazo[4,5-c]quinolin-2-one]: 0.132 µM.
On the same count and under the same terms, in the case of `CNc1ccc(-c2ccc3ncc4c(c3c2)n(-c2cccnc2C)c(=O)n4C)cn1` [Example 2.13, 3-Methyl-8-(6-methylamino-pyridin-3-yl)-1-(2-methyl-pyridin-3-yl)-1,3-dihydro-imidazo[4,5-c]quinolin-2-one] it was 0.226 µM.
As to `Cc1ncccc1-n1c(=O)n(C)c2cnc3ccc(-c4cnc(N(C)C)nc4)cc3c21` [Example 2.15, 8-(2-Dimethylamino-pyrimidin-5-yl)-3-methyl-1-(2-methyl-pyridin-3-yl)-1,3-dihydro-imidazo[4,5-c]quinolin-2-one], the IC50 amounted to 0.36 µM.
On the same count and under the same terms, in the case of `Cc1cccnc1-n1c(=O)n(C)c2cnc3ccc(-c4cnc(N)c(C(F)(F)F)c4)cc3c21` [Example 3.12, 8-(6-Amino-5-trifluoromethyl-pyridin-3-yl)-3-methyl-1-(3-methyl-pyridin-2-yl)-1,3-dihydro-imidazo[4,5-c]quinolin-2-one] it was 0.109 µM.
With `COc1ccc(-c2ccc3ncc4c(c3c2)n(-c2cnccc2C)c(=O)n4C)cn1` [Example 4.3, 8-(6-Methoxy-pyridin-3-yl)-3-methyl-1-(4-methyl-pyridin-3-yl)-1,3-dihydro-imidazo[4,5-c]quinolin-2-one], the IC50 came out at 0.601 µM.
Still for that read-out and setting: the same measure for `Cn1c(=O)n(-c2cccnc2)c2c3cc(-c4ccc(CO)nc4)ccc3ncc21` [Example 5.1, 8-(6-Hydroxymethyl-pyridin-3-yl)-3-methyl-1-pyridin-3-yl-1,3-dihydro-imidazo[4,5-c]quinolin-2-one]: 0.801 µM.
On the same count and under the same terms, in the case of `CCOc1ccc(-c2ccc3ncc4c(c3c2)n(-c2cccnc2F)c(=O)n4C)cn1` [Example 6.1, 8-(6-Ethoxy-pyridin-3-yl)-1-(2-fluoro-pyridin-3-yl)-3-methyl-1,3-dihydro-imidazo[4,5-c]quinolin-2-one] it was 0.223 µM.
The same measure, in the same setting: the same measure for `Cn1c(=O)n(-c2cccnc2F)c2c3cc(-c4cnc(N)c(C(F)(F)F)c4)ccc3ncc21` [Example 6.2, 8-(6-Amino-5-trifluoromethyl-pyridin-3-yl)-1-(2-fluoro-pyridin-3-yl)-3-methyl-1,3-dihydro-imidazo[4,5-c]quinolin-2-one]: 0.007 µM.
